Experimental data published in patent US4837353A, “Dopamine-β-hydroxylase inhibitors” (SmithKline Beckman Corporation, priority 1988, dated 1989).
Structures can show the parent of a compound that is named as a salt.

Columns and labels:
DBH = molecular target: T1, DBH (Homo sapiens, UniProt P09172); details: cited from earlier work; for DBH inhibition (in words): literature reports; for mode of DBH inhibition: phenethylalamine analogues
T1 sequence (P09172 1-617): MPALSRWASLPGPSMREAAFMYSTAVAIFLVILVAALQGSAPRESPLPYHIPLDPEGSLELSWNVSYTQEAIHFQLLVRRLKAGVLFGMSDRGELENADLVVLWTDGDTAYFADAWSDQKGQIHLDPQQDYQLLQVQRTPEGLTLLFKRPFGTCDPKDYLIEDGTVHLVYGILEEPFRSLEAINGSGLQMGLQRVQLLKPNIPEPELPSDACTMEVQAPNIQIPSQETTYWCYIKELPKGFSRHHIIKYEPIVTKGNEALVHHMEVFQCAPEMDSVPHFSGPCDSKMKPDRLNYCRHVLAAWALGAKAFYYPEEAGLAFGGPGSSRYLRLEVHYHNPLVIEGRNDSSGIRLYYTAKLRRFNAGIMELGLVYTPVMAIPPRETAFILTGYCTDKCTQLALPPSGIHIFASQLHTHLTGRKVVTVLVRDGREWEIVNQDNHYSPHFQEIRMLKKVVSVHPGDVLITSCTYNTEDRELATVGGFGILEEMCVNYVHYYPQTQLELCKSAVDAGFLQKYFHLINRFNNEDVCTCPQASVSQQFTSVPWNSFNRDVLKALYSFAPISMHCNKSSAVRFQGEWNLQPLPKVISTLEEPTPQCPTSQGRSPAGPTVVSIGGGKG

[1] = tested on: spontaneously hypertensive rats; experiment: mean arterial blood pressure in spontaneously hypertensive rats; type: in vivo, rat; details: 50 mg/kg intraperitoneally
Experimental: Further, spontaneously hypertensive rats were treated with a suspension or solution of N-(2-aminoethyl)-1-(3,5-difluorobenzyl)-2-mercaptoimidazole-5-carboxamid formate at a dose of 50 mg/kg intraperitoneally, and mean arterial blood pressure was monitored for 260 minutes using indwelling cannulae in the tail arteries.

SMILES: O=C(O)c1ccc(CCC(Br)CBr)cn1 (stereo not drawn) [5-(3,4-dibromobutyl)picolinic acid]
- DBH inhibition (in words) (DBH): DBH inhibitors

SMILES: O=C(O)c1ccc(CCCCCl)cn1 [5-(4-chlorobutyl) picolinic acid]
- DBH inhibition (in words) (DBH): inhibit DBH

SMILES: CN(C)C(=S)SCc1ccc(C(=O)O)nc1 [5-(dimethyldithiocarbamoylmethyl)picolinic acid]
- DBH inhibition (in words) (DBH): DBH inhibitors

SMILES: NOCc1ccccc1 [Benzyloxyamine, benzyloxyamine]
- mode of DBH inhibition (DBH): apparently act as competitive inhibitors

SMILES: CCCCc1ccc(C(N)=O)nc1 [Bupicomide, 5-(n-butyl)picolinamine]
- DBH inhibition (in words) (DBH): DBH inhibitor

SMILES: NCCNC(=O)c1cnc(S)n1Cc1cc(F)cc(F)c1 [N-(2-Aminoethyl)-1-(3,5-difluorobenzyl)-2-mercaptoimidazole-5-carboxamide,formate]
- blood pressure when monitoring was terminated ([1]; 260 minutes): blood pressure remained decreased when monitoring was terminated
- mean arterial blood pressure reduction compared to vehicle-treated controls ([1]; tail artery cannulae, monitored for 260 minutes): significant blood pressure reductions
- time following treatment to significant blood pressure reductions ([1]; vs vehicle-treated controls): ≤ 30 min

SMILES: NNCc1ccccc1 [benzylhydrazine]
- mode of DBH inhibition (DBH): apparently act as competitive inhibitors
